Marks after values point to notes of the source that are not given here.
What was measured:
Format in all cases: in vivo
[1] = system: Winter wheat variety Barrel; experiment: Nitrogen content in grains of field-grown winter wheat, Kjeldahl method (Example 4); details: MTU 0.4 g/ha, pyroglutamic acid 40 g/ha
Description: (§1) The field experiments were done in 2019 in the UK and they were performed in accordance with the Good Experimental Practice criteria. Winter wheat variety Barrel was used. MTU was applied by spraying at a concentration of 10 μM (2 mg/L) and a dosage of 200 L/ha (0.4 g/ha of MTU). Pyroglutamic acid was used at 40 g/ha, applied at a dose of 200 l/ha in a water solution.
Wheat grains used to make bread require a grain nitrogen content of 2.1% (w/w) or higher. Grains from each sample treatment from the experiment described in Example 3 were analyzed for nitrogen content. The analysis was done using a Kjeldahl method (Kjeldahl, J. (1883) “New method for the determination of nitrogen in organic substances), Zeitschrift für analytische Chemie, 22 (1): 366-383.

[2] = system: Oilseed rape variety Elgar (2018) and Elizze (2019); experiment: Grain yield of field-grown oilseed rape (Example 5); details: MTU 0.4 g/ha, pyroglutamic acid 40 g/ha
Description: Oilseed rape variety Elgar (2018) and Elizze (2019) were grown in the UK in the years 2018 and 2019. Experiments were performed in accordance with the Good Experimental Practice criteria. MTU was applied by spraying at a concentration of 10 μM (2 mg/L) and a dosage of 200 L/ha (0.4 g/ha of MTU). Pyroglutamic acid was used at 40 g/ha, applied at a dosage of 200 L/ha in a water solution.

[3] = system: wheat (Triticum aestivum) cv. Balitus; experiment: Root and shoot dry weight and total chlorophyll content of wheat under drought stress conditions (Example 2)
Description: To investigate the effect of the combinations on the weight parameters, and the total content of chlorophyll, seeds of wheat (Triticum aestivum) cv. Balitus were sown in a hydroponic growing system (Araponics, Liege, Belgium) using Hoagland's solution (control). Twenty days after sowing plants (except for control plants) were sprayed by either MTU (10 μM) or by nitrogen utilization enhancers alone or with a combination of MTU (10 μM) and nitrogen utilization enhancers. The plants were grown in a glasshouse at 20-28° C. under a combination of natural and artificial light. Since the treatment (20 days after sowing), the plants received low water doses. […] The root dry weight (RDW), shoot dry weight (SDW), and total chlorophyll content (TCC) of at least 25 plants were measured at the end of the experiment—45 days after the plants had been sown. RDW and SDW were recorded after drying the plants at 70° C. for 2 days. The chlorophyll content of each plant was measured by SPAD meter reading at the end of the experiment and TCC was calculated as SPAD value per SDW.

[4] = system: sunflower (Helianthus sp. L.); experiment: Seed yield of field-grown sunflower (Example 6); details: Hungary 2020, MTU 2 mg/L at 300 L/ha, pyroglutamic acid 50 g/ha
Description: Seeds of sunflower (Helianthus sp. L.) were sown in Hungary in 2020 in accordance with the Good Experimental Practice criteria. MTU was applied by spraying at a concentration of 10 μM (2 mg/L) and a dosage of 300 L/ha. Pyroglutamic acid was used at 50 g/ha, applied at a dosage of 300 L/ha in a water solution.

[5] = system: Winter wheat variety Barrel; experiment: Grain yield of field-grown winter wheat (Example 3); details: MTU 0.4 g/ha, pyroglutamic acid 40 g/ha, UK 2019
Description: as §1

winter wheat plants = experiment: Root dry weight of winter wheat, method of testing the synergistically effective amounts of MTU and PCA (optimal conditions)
Description: The synergistically effective amounts of MTU and pyroglutamic acid (PCA) were determined by the method of determining the root growth of winter wheat plants. […].
As a first control, MTU was applied to another group of the winter wheat plants at the following amounts: 1, 2, 4 and 8 mg/liter of the composition.
As a second control, PCA was applied to another group of the winter wheat plants at the amount of 200 mg/liter of the composition.
As a negative control, another group of the winter wheat plants was applied only water in the same amount as the compositions applied to the above-described groups.
The plants were then grown at 20° C. under natural light for a period of 45 days. The root dry weight (RDW) of at least 30 plants was measured 45 days after the plants had been sown for each group. RDW was recorded after drying the plants at 70° C. for 2 days.
The relative increase in RDW was calculated as % of control (Table 1). The % of control for combinations containing MTU: PCA in ratios 1:200, 2:200 and 4:200 was higher than the sum of % of control of only PCA group (+8.8%) with the MTU group (1, 2 or 4 mg).

[6] = system: wheat (Triticum aestivum) cv. Balitus; experiment: Root and shoot dry weight and leaf nitrogen content of hydroponically grown wheat under optimal conditions (Example 1)
Description: To investigate the effect of the combinations on the weight parameters, the seeds of wheat (Triticum aestivum) cv. Balitus were sown in a hydroponic growing system (Araponics, Liege, Belgium) using Hoagland's solution (control). Twenty days after sowing, plants (except for control plants) were sprayed by aqueous solution of either MTU (10 μM) or by a nitrogen utilization enhancer alone or by a combination of MTU (10 μM) with the nitrogen utilization enhancer. The plants were grown in the Czech Republic in a glasshouse at 16-25° C. under natural and artificial light during the winter period. The root dry weight (RDW), shoot dry weight (SDW) and the nitrogen content in the leaves of at least 30 plants were measured 45 days after the plants had been sown. RDW and SDW were recorded after drying the plants at 70° C. for 2 days.

[7] = UK 2018, application at BBCH 13
[8] = UK 2018, application at BBCH 65
[9] = UK 2019, application at BBCH 65
[10] = UK 2019, application at BBCH 70
[11] = 200 mg in 1 liter of composition

COCCNC(=O)Nc1cnns1 [MTU, 1-(2-methoxyethyl)-3-(1,2,3-thiadiazol-5yl)urea]
Nitrogen content % of control ([1]; application at BBCH 32): −9.5%
Nitrogen content (%) of grains ([1]; application at BBCH 32): 1.82%
Nitrogen content % of control ([1]; application at BBCH 39): −2.0%
Nitrogen content (%) of grains ([1]; application at BBCH 39): 1.97%
Nitrogen content % of control ([1]; application at BBCH 50-55): −10.0%
Nitrogen content (%) of grains ([1]; application at BBCH 50-55): 1.81%
Yield % of control [2, 7]: +2.9%
Yield (grain) [2, 7]: 3.90 t/ha
Yield % of control [2, 8]: +4.8%
Yield (grain) [2, 8]: 4.61 t/ha
Yield % of control [2, 9]: +6.2%
Yield (grain) [2, 9]: 3.93 t/ha
Yield % of control [2, 10]: +3.8%
Yield (grain) [2, 10]: 3.84 t/ha
RDW (root dry weight) ([3]; concentration 2 mg/L): 0.74 g
SDW (shoot dry weight) ([3]; concentration 2 mg/L): 1.28 g
Yield % of control ([4]; application at BBCH 16-18): +12.0%
Yield (seed) ([4]; application at BBCH 16-18): 3.08 t/ha
Yield % of control ([4]; application at BBCH 55): +4.7%
Yield (seed) ([4]; application at BBCH 55): 2.88 t/ha
Yield % of control ([5]; application at BBCH 32): +2.4%
Yield (grain) ([5]; application at BBCH 32): 10.225 t/ha
Yield % of control ([5]; application at BBCH 39): +2.4%
Yield (grain) ([5]; application at BBCH 39): 10.230 t/ha
Yield % of control ([5]; application at BBCH 50-55): +0.5%
Yield (grain) ([5]; application at BBCH 50-55): 10.033 t/ha
RDW % of control (winter wheat plants; 1 mg in 1 liter of composition): +5.5%
RDW (root dry weight) (winter wheat plants; 1 mg in 1 liter of composition): 0.96 g
RDW % of control (winter wheat plants; 2 mg in 1 liter of composition): +7.7%
RDW (root dry weight) (winter wheat plants; 2 mg in 1 liter of composition): 0.98 g
RDW % of control (winter wheat plants; 4 mg in 1 liter of composition): +15.4%
RDW (root dry weight) (winter wheat plants; 4 mg in 1 liter of composition): 1.05 g
RDW % of control (winter wheat plants; 8 mg in 1 liter of composition): +18.1%
RDW (root dry weight) (winter wheat plants; 8 mg in 1 liter of composition): 1.07 g
Nitrogen content in the leaves ([6]; concentration 2 mg/L): 4.47 weight %
RDW % of control ([6]; concentration 2 mg/L): +3.8%
RDW (root dry weight) ([6]; concentration 2 mg/L): 0.83 g
SDW % of control ([6]; concentration 2 mg/L): +3.9%
SDW (shoot dry weight) ([6]; concentration 2 mg/L): 1.58 g

O=C1CC[C@@H](C(=O)O)N1 [Pyroglutamic acid, pyroglutamic acid]
Nitrogen content % of control ([1]; application at BBCH 32): −7.0%
Nitrogen content (%) of grains ([1]; application at BBCH 32): 1.87%
Nitrogen content % of control ([1]; application at BBCH 39): −5.5%
Nitrogen content (%) of grains ([1]; application at BBCH 39): 1.90%
Nitrogen content % of control ([1]; application at BBCH 50-55): −10.0%
Nitrogen content (%) of grains ([1]; application at BBCH 50-55): 1.81%
Yield % of control [2, 7]: +5.0%
Yield (grain) [2, 7]: 3.97* t/ha
Yield % of control [2, 8]: +23.9%
Yield (grain) [2, 8]: 5.45* t/ha
Yield % of control [2, 9]: +3.5%
Yield (grain) [2, 9]: 3.83 t/ha
Yield % of control [2, 10]: +5.4%
Yield (grain) [2, 10]: 3.90 t/ha
RDW % of control ([3]; concentration 200 mg/L): +11.9%
RDW (root dry weight) ([3]; concentration 200 mg/L): 0.75 g
SDW % of control ([3]; concentration 200 mg/L): −1.6%
SDW (shoot dry weight) ([3]; concentration 200 mg/L): 1.2 g
RDW % of control ([3]; concentration 400 mg/L): +14.9%
RDW (root dry weight) ([3]; concentration 400 mg/L): 0.77 g
SDW % of control ([3]; concentration 400 mg/L): +0.8%
SDW (shoot dry weight) ([3]; concentration 400 mg/L): 1.23 g
Yield % of control ([4]; application at BBCH 16-18): +5.0%
Yield (seed) ([4]; application at BBCH 16-18): 2.89 t/ha
Yield % of control ([4]; application at BBCH 55): +6.3%
Yield (seed) ([4]; application at BBCH 55): 2.92 t/ha
Yield % of control ([5]; application at BBCH 32): +1.8%
Yield (grain) ([5]; application at BBCH 32): 10.167 t/ha
Yield % of control ([5]; application at BBCH 39): +2.0%
Yield (grain) ([5]; application at BBCH 39): 10.183 t/ha
Yield % of control ([5]; application at BBCH 50-55): +2.6%
Yield (grain) ([5]; application at BBCH 50-55): 10.241 t/ha
RDW % of control (winter wheat plants; [11]): +8.8%
RDW (root dry weight) (winter wheat plants; [11]): 0.99 g
RDW % of control ([6]; concentration 200 mg/L): +6.3%
RDW (root dry weight) ([6]; concentration 200 mg/L): 0.85 g
SDW % of control ([6]; concentration 200 mg/L): +6.8%
SDW (shoot dry weight) ([6]; concentration 200 mg/L): 1.63 g
Nitrogen content in the leaves ([6]; concentration 400 mg/L): 4.65 weight %
RDW % of control ([6]; concentration 400 mg/L): +13.8%
RDW (root dry weight) ([6]; concentration 400 mg/L): 0.91 g
SDW % of control ([6]; concentration 400 mg/L): +10.5%
SDW (shoot dry weight) ([6]; concentration 400 mg/L): 1.68 g

Reference: patent US20250143306A1, “COMBINATION FOR IMPROVING PLANT GROWTH AND/OR YIELD, FORMULATION AND METHOD FOR INCREASING PLANT GROWTH, STRESS RESISTANCE, AND YIELDS, AND USE THEREOF” (INSTITUTE OF EXPERIMENTAL BOTANY CAS CR, V.V.I., priority 2022, published 2025)
